# Data as given in patent US20100063162A1, “METHOD FOR PREDICTING EFFICACY OF RAR-ALPHA AGONIST” (TAIHO PHARMACEUTICAL CO., LTD., priority 2005, published 2010).
# Tests used:
# liver cancer = settings: animal model of liver cancer; cited from earlier work
# human liver cancer = settings: phase II study; cited from earlier work
# HCC-D = experiment: Orthotopic hepatoma model, tumor weight in the liver, HCC-D; format: in vivo, nude mouse; settings: oral everyday, 3 weeks, nude mice
# Protocol: (§1) Accordingly, an experiment of therapeutic treatment was performed to examine susceptibility to RAR-α agonists. The cultured liver cancer cells were transplanted in an amount of 1×10^6 cells into the outer left lobes of the livers in nude mice (BALB/cA Jcl-nu, Clea Japan, Inc.), TAC-101 as an RAR-α agonist was orally administered everyday as a 0.5% hydroxypropylmethylcellulose suspension (Shin-Etsu Chemical Co., Ltd.), and then the weights of tumors formed in the livers were measured 3 weeks later to obtain mean inhibition rates. […] Further, it was also observed by two-sided Student's t test that these antitumor effects were statistically significant inhibitory action.
# HCC-E cells = experiment: Survival after spleen inoculation (liver metastasis model), HCC-E; format: in vivo, nude mouse; settings: oral every day for 4 weeks, nude mice
# Text: (§2) Further, correlation between the cofactor balance and survival advantage was examined by using cancer cell lines for which survival were evaluatable. When cells of the colorectal cancer cell line CAC, having an AIB1/SP110b ratio of 0.08 so as to be dominant in SP110b, and the aforementioned HCC-E cells are inoculated in the nude mouse spleen, dissemination easily occurs in the liver, resulting in formation of a metastatic condition in the liver. After 1×10^6 of CAC or HCC-E cells were transplanted, and TAC-101 was orally administered every day for 4 weeks, the survival time of each model animal was observed. In the CAC model, in which SP110b was dominant, prolongation of the survival time was only 26%, whereas in the HCC-E model, in which the class of the p160 family molecule was dominant, nearly […] longer survival time prolongation of 81% was confirmed. Further, this effect in the HCC-E model was also statistically significant (P<0.001).
# HCC-E = experiment: Orthotopic hepatoma model, tumor weight in the liver, HCC-E; format: in vivo, nude mouse; settings: oral everyday, 3 weeks, nude mice
# Protocol: as §1
# HCC-C = experiment: Orthotopic hepatoma model, tumor weight in the liver, HCC-C; format: in vivo, nude mouse; settings: oral everyday, 3 weeks, nude mice
# Protocol: as §1
# [1] = test system: colorectal cancer cell line CAC; experiment: Survival after spleen inoculation (liver metastasis model), CAC; format: in vivo, nude mouse; settings: oral every day for 4 weeks, nude mice
# Text: as §2
# RAR-α = RAR-α transcription activity test (pRARE-SEAP reporter) in hepatocellular carcinoma cells; format: cell-based, human; settings: for RAR response (T/C %): 24 hours, untreated cells = 100
# Protocol: The test for confirming the RAR-α transcription activity was performed as follows.
# Hepatocellular carcinoma cells of each type transfected with a reporter plasmid containing an RAR-α binding sequence with the SEAP gene in a downstream region (pRARE-SEAP-TA-vector, Clontech) were treated with an RAR-α agonist, and then the SEAP alkaline phosphatase activity in the culture supernatant was measured. The cultured hepatocellular carcinoma cells were transfected with the RARE reporter plasmid mixed in a transfection reagent prepared by using the culture broth and FuGENE6 solution at a ratio of 100:6 and cultured for 24 hours. The culture broth was replaced with the one containing TAC-101 as an RAR-α agonist, and the cells were cultured for further 24 hours. Then, the culture supernatant was collected, and transcription activity was confirmed by using an alkaline phosphatase activity measurement reagent (SEAP Detection Kit, Clontech).
compound,measurement,setting,value
"C[Si](C)(C)c1cc(C(=O)Nc2ccc(C(=O)O)cc2)cc([Si](C)(C)C)c1 [TAC-101, 4-[3,5-Bis(trimethylsilyl)benzamido]benzoic acid]",antitumor activity (in words),liver cancer,antitumor activity of TAC-101 was observed
same,prevention of tumor progression,human liver cancer,43%
same,"Inhibition (%) of tumor growth (tumor weight, mean inhibition rate)",HCC-D,−3%
same,therapeutic effect (in words),HCC-D,no therapeutic effect was observed
same,Increase of life span (%),HCC-E cells,81%
same,"Inhibition (%) of tumor growth (tumor weight, mean inhibition rate)",HCC-E,67%
same,"Inhibition (%) of tumor growth (tumor weight, mean inhibition rate)",HCC-C,81%
same,Increase of life span (%),[1],26%
same,RAR response (T/C %),"RAR-α; HCC-A cells, TAC-101 0.3 μM",142%
same,RAR response (T/C %),"RAR-α; HCC-A cells, TAC-101 1 μM",110%
same,RAR response (T/C %),"RAR-α; HCC-A cells, TAC-101 3 μM",143%
same,RAR response (T/C %),"RAR-α; HCC-B cells, TAC-101 0.3 μM",180%
same,RAR response (T/C %),"RAR-α; HCC-B cells, TAC-101 1 μM",188%
same,RAR response (T/C %),"RAR-α; HCC-B cells, TAC-101 3 μM",146%
same,RAR transcription activity induced by TAC-101 (in words),RAR-α; HCC-C cells,high
same,RAR response (T/C %),"RAR-α; HCC-C cells, TAC-101 0.3 μM",342%
same,RAR response (T/C %),"RAR-α; HCC-C cells, TAC-101 1 μM",497%
same,RAR response (T/C %),"RAR-α; HCC-C cells, TAC-101 3 μM",285%
same,RAR transcription activity induced by TAC-101 (in words),RAR-α; HCC-D cells,weak
same,RAR response (T/C %),"RAR-α; HCC-D cells, TAC-101 0.3 μM",161%
same,RAR response (T/C %),"RAR-α; HCC-D cells, TAC-101 1 μM",161%
same,RAR response (T/C %),"RAR-α; HCC-D cells, TAC-101 3 μM",168%
same,RAR transcription activity induced by TAC-101 (in words),RAR-α; HCC-E cells,high
same,RAR response (T/C %),"RAR-α; HCC-E cells, TAC-101 0.3 μM",476%
same,RAR response (T/C %),"RAR-α; HCC-E cells, TAC-101 1 μM",482%
same,RAR response (T/C %),"RAR-α; HCC-E cells, TAC-101 3 μM",259%
